Results from paper PMC10947119 (Angewandte Chemie (International Ed. in English), 2023).
Like-named read-outs stand apart in the source and are kept apart here.

What was measured:
[1] = tested on: coaD CRISPRi knockdown Mtb mutant (Mtb H37RvMA); format: cell-based, Mycobacterium tuberculosis
[2] = tested on: coaBC CRISPRi knockdown Mtb mutant (Mtb H37RvMA); format: cell-based, Mycobacterium tuberculosis; conditions: highest ATc concentrations compatible with uninhibited proliferation

Row | Structure (SMILES) | minimum inhibitory concentration, MIC [1] | Effect of ATc (coaD silencing) on susceptibility ([1]; 1.6 and 0.8 ng/mL ATc) | Effect of ATc (coaBC silencing) on susceptibility [2] | Effect of ATc (coaD silencing) on susceptibility [1]
1 | O=C(O)c1cnn(-c2ccccc2)c1OCCCc1c[nH]c2ccccc12 [compound 20] | ≈ 60 μM | enhanced in an ATc concentration‐dependent manner | little‐to‐no effect | 
2 | NNC(=O)c1ccncc1 [isoniazid, reference compound] |  |  |  | did not render the coaD CRISPRi Mtb mutant more susceptible
3 | CO[C@H]1/C=C/O[C@@]2(C)Oc3c(C)c(O)c4c(O)c(c(/C=N/N5CCN(C)CC5)c(O)c4c3C2=O)NC(=O)/C(C)=C\C=C\[C@H](C)[C@H](O)[C@@H](C)[C@@H](O)[C@@H](C)[C@H](OC(C)=O)[C@@H]1C [rifampicin, reference compound] |  |  |  | did not render the coaD CRISPRi Mtb mutant more susceptible
